Assay: Biodistribution of 3H compound in rat
Type: in vivo, Rats (Wistar)
Conditions: Wistar rat, 2, 5, 20 and 40 min p.i.
Description: A tritiated version of 3-[2,4-Difluoro-phenoxy]-phenyl-pyrazole-1-carboxylic acid amide (“Hammersmith compound” in FIG. 1) was custom prepared by GE Healthcare, Cardiff.
Rats (Wistar, ca. 150 g; Charles River UK Ltd) were injected with 0.37 MBq of [^3H]-3-[2,4-Difluoro-phenoxy]-phenyl-pyrazole-1-carboxylic acid amide, as an intravenous bolus via the tail vein. Rats were killed by cervical dislocation at 2, 5, 20 and 40 min post injection (p.i.). Brain (separated as cortex and hippocampus), blood, and major organs were collected, weighed and burned using a Packard Tissue Oxidizer model 307 (Packard Instrument Co., Meriden, Conn.). Samples were then counted in a β-counter (Rack Beta, Perkin Elmer LAS (UK) Ltd).

NC(=O)n1ccc(-c2ccc(Oc3ccc(F)cc3F)cc2)n1 [[^3H]-3-[2,4-Difluoro-phenoxy]-phenyl-pyrazole-1-carboxylic acid amide]
time activity curves (0.37 MBq i.v., FIG. 1): consistent with reversible binding | brain uptake of the compound (0.37 MBq intravenous bolus via tail vein, % id/g shown in FIG. 1): good
